Measurements published in patent US10722514B2 (FLX Bio, Inc., priority 2017, dated 2020).

biological target: T1, recombinant full-length USP7 (Homo sapiens, UniProt Q93009); assay: USP7-mediated ubiquitin-rhodamine cleavage assay; type: biochemical; conditions: recombinant full-length USP7 62 pM; ubiquitin-rhodamine 100 nM; 30-minute incubation with compound, 1 hour reaction at room temperature; read-out: Potency: USP7 IC50
T1 construct: A 25 μl reaction volume containing recombinant full-length USP7 (62 pM)
T1 sequence (Q93009 whole entry): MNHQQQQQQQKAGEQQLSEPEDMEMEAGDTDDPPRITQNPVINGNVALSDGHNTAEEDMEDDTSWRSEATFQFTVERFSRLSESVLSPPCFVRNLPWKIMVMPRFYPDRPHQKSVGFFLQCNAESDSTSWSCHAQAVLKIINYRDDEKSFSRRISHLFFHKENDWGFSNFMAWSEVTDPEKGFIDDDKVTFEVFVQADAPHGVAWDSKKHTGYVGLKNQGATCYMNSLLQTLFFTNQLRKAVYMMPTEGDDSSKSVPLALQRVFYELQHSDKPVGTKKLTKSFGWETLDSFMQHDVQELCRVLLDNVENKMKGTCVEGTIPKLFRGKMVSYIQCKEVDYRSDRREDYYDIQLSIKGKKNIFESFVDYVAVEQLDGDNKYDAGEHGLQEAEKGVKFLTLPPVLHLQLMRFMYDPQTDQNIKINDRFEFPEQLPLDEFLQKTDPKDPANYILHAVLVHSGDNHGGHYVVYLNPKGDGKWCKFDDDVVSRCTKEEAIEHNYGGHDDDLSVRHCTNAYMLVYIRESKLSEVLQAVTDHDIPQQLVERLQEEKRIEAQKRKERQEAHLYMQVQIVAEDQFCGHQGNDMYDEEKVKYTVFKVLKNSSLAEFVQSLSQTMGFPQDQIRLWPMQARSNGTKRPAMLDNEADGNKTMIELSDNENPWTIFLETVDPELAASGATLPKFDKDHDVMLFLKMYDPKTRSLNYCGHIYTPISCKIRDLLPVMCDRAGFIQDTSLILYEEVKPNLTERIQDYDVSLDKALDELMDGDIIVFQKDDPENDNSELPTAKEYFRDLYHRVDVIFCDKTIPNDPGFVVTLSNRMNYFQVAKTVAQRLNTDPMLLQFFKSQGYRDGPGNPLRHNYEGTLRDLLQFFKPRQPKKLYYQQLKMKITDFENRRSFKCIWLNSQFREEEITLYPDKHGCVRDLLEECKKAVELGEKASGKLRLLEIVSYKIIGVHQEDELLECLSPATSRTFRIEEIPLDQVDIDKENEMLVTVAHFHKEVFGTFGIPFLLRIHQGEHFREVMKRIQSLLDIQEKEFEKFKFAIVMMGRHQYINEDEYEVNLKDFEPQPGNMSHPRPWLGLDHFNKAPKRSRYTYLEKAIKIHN
How it was run: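 Enzyme 62 pM; HEPES pH 7.3/150 mM NaCl/1 mM TCEP/125 μg/ml BSA; 1% DMSO; 30 min cpd preinc RT; Ub-rhodamine 100 nM, 1 h RT, dark; acetic acid stop; fluorescence; IC50 4-param fit.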

Row | Structure (SMILES) | IC50 [nM]
1 | Cc1cc([N+](=O)[O-])cc(-c2ccnc3cc(Cn4c(=O)ccn(CC(F)(F)F)c4=O)sc23)c1Oc1cncc(N)c1 [Example 281, 3-[[7-[2-[(5-amino-3-pyridyl)oxy]-3-methyl-5-nitro-phenyl]thieno[3,2-b]pyridin-2-yl]methyl]-1-(2,2,2-trifluoroethyl)pyrimidine-2,4-dione] | < 1000
2 | Cc1cc(Cl)cc(-c2ccnc3cc(CO)sc23)c1OCC1CNC1 [Example 19, (7-(2-(Azetidin-3-ylmethoxy)-5-chloro-3-methylphenyl)thieno[3,2-b]pyridin-2-yl)methanol] | 1000 to 10000
3 | Cc1cc(Cl)cc(-c2ccnc3cc(Cn4c(=O)ccn(CC(F)(F)F)c4=O)sc23)c1O[C@@H]1CNCC[C@@H]1C [Example 337, 3-[[7-[5-chloro-3-methyl-2-[[(3S,4S)-4-methyl-3-piperidyl]oxy]phenyl]thieno[3,2-b]pyridin-2-yl]methyl]-1-(2,2,2-trifluoroethyl)pyrimidine-2,4-dione] | < 1000
4 | Cc1cc(Cl)cc(-c2ccnc3cc(CN4C(=O)C5CCC5C4=O)sc23)c1O[C@@H]1CN(C(=O)OC(C)(C)C)C[C@@H]1F (stereo partly drawn) [Example 355, tert-butyl (3R,4S)-3-[4-chloro-2-[2-[(2,4-dioxo-3-azabicyclo[3.2.0]heptan-3-yl)methyl]thieno[3,2-b]pyridin-7-yl]-6-methyl-phenoxy]-4-fluoro-pyrrolidine-1-carboxylate; 2,2,2-trifluoroacetic acid] | < 1000
5 | Cc1cc(Cl)cc(-c2ccnc3cc(CO)sc23)c1O[C@H]1C[C@H]2CC[C@@H](C1)N2 [Example 193, (7-(2-(((1R,3r,5S)-8-Azabicyclo[3.2.1]octan-3-yl)oxy)-5-chloro-3-methylphenyl)thieno[3,2-b]pyridin-2-yl)methanol] | 1000 to 10000
6 | Cc1cc(Cl)cc(-c2ccnc3cc(CO)sc23)c1O[C@@H]1CCC[C@@H]1N [Example 74, (7-(2-(((1R,2S)-2-Aminocyclopentyl)oxy)-5-chloro-3-methylphenyl)thieno[3,2-b]pyridin-2-yl)methanol] | 10000 to 30000
7 | Cc1cc(Cl)cc(-c2ccnc3cc(CO)sc23)c1O[C@@H]1C[C@H]2CC[C@@H](C1)N2 [Example 192, (7-(2-(((1R,3S,5S)-8-Azabicyclo[3.2.1]octan-3-yl)oxy)-5-chloro-3-methylphenyl)thieno[3,2-b]pyridin-2-yl)methanol] | 1000 to 10000
8 | Cc1cc(Cl)cc(-c2ccnc3cc(CN4C(=O)C5C(C4=O)C5(C)C)sc23)c1OCC1(C)CNC1 (centres unmarked) [Example 400, 3-[[7-[5-chloro-3-methyl-2-[(3-methylazetidin-3-yl)methoxy]phenyl]thieno[3,2-b]pyridin-2-yl]methyl]-6,6-dimethyl-3-azabicyclo[3.1.0]hexane-2,4-dione] | < 1000

The next lines start with the values.

Row | IC50 [nM] | Structure (SMILES)
9 | < 1000 | Cc1cc(Cl)cc(-c2ccnc3cc(CN4C(=O)NC(C)(C)C4=O)sc23)c1OC1CCNCC1 [Example 185, 3-((7-(5-Chloro-3-methyl-2-(piperidin-4-yloxy)phenyl)thieno[3,2-b]pyridin-2-yl)methyl)-5,5-dimethylimidazolidine-2,4-dione]
10 | < 1000 | CCN1C[C@H]2C[C@@H]1[C@H](Oc1c(C)cc(Cl)cc1-c1ccnc3cc(CN4C(=O)CCC4=O)sc13)C2 [Example 321, 1-[[7-[5-chloro-2-[[(1S,4R,5R)-3-ethyl-3-azabicyclo[2.2.1]heptan-5-yl]oxy]-3-methyl-phenyl]thieno[3,2-b]pyridin-2-yl]methyl]pyrrolidine-2,5-dione]
11 | < 1000 | Cc1cc(Cl)cc(-c2ccnc3cc(CN4C(=O)C5CCCN5C4=O)sc23)c1O[C@@H]1CNC[C@@H]1F (stereo partly drawn) [Example 143, 2-((7-(5-Chloro-2-(((3R,4S)-4-fluoropyrrolidin-3-yl)oxy)-3-methylphenyl)thieno[3,2-b]pyridin-2-yl)methyl)tetrahydro-1H-pyrrolo[1,2-c] imidazole-1,3(2H)-dione]
12 | 10000 to 30000 | Cc1cc(Cl)cc(-c2ccnc3cc(CN4C(=O)CCC4=O)ccc23)c1O[C@@H]1CNC[C@@H]1F [Example 100, 1-((4-(5-Chloro-2-(((3R,4S)-4-fluoropyrrolidin-3-yl)oxy)-3-methylphenyl)quinolin-7-yl)methyl)pyrrolidine-2,5-dione]

same assay, conditions: recombinant full-length USP7 62 pM; ubiquitin-rhodamine 100 nM; 30-minute incubation, 1 hour reaction at room temperature; read-out: Potency (USP7 IC50)

Row | Structure (SMILES) | IC50 [nM]
13 | Cc1cc(Cl)cc(-c2ccnc3cc(Cn4c(=O)ccn(CC(F)(F)F)c4=O)sc23)c1OC1CC(O)C1 (centres unmarked) [Example 678, 3-[[7-[5-chloro-2-(3-hydroxycyclobutoxy)-3-methyl-phenyl]thieno[3,2-b]pyridin-2-yl]methyl]-1-(2,2,2-trifluoroethyl)pyrimidine-2,4-dione] | < 1000
14 | Cc1cc(Cl)cc(-c2ccnc3cc(Cn4c(=O)ccn(CC(F)(F)F)c4=O)sc23)c1OC1CC(N2CCC(O)C2)C1 (centres unmarked) [Example 672, 3-[[7-[5-chloro-2-[3-(3-hydroxypyrrolidin-1-yl)cyclobutoxy]-3-methyl-phenyl]thieno[3,2-b]pyridin-2-yl]methyl]-1-(2,2,2-trifluoroethyl)pyrimidine-2,4-dione; 2,2,2-trifluoroacetic acid] | < 1000

same assay, conditions: recombinant full-length USP7 62 pM; ubiquitin-rhodamine 100 nM; 30-minute pre-incubation, 1 hour reaction at room temperature; read-out: Potency (USP7 IC50)

Row | Structure (SMILES) | IC50 [nM]
15 | Cc1cc(Cl)cc(-c2ccnc3cc(Cn4c(=O)ccn(CC(F)(F)F)c4=O)sc23)c1OC1(C)CCCNC1 (centres unmarked) [Example 639, 3-[[7-[5-chloro-3-methyl-2-[(3-methyl-3-piperidyl)oxy]phenyl]thieno[3,2-b]pyridin-2-yl]methyl]-1-(2,2,2-trifluoroethyl)pyrimidine-2,4-dione] | < 1000
16 | Cc1cc(Cl)cc(-c2ccnc3cc(Cn4c(=O)ccn(C)c4=O)sc23)c1O[C@@H]1CN[C@@H](C(=O)O)C1 [Example 599, (2R,4S)-4-[4-chloro-2-methyl-6-[2-[(3-methyl-2,6-dioxo-pyrimidin-1-yl)methyl]thieno[3,2-b]pyridin-7-yl]phenoxy]pyrrolidine-2-carboxylic acid] | < 1000
17 | Cc1cc(Cl)cc(-c2ccnc3cc(Cn4c(=O)c(C)cn(C)c4=O)sc23)c1O[C@H]1CCCNC1 [Example 478, 3-[[7-[5-chloro-3-methyl-2-[[(3S)-3-piperidyl]oxy]phenyl]thieno[3,2-b]pyridin-2-yl]methyl]-1,5-dimethyl-pyrimidine-2,4-dione; 2,2,2-trifluoroacetic acid] | < 1000
18 | Cc1cc(Cl)cc(-c2ccnc(CCCN3C(=O)CCC3=O)c2)c1OC1CNC[C@@H]1F (stereo partly drawn) [Example 408, 1-[3-[4-[5-chloro-2-[(4S)-4-fluoropyrrolidin-3-yl]oxy-3-methyl-phenyl]-2-pyridyl]propyl]pyrrolidine-2,5-dione; 2,2,2-trifluoroacetic acid] | 1000 to 10000
19 | Cc1cc(Cl)cc(-c2ncnc3cc(Cn4c(=O)ccn(C(C)C)c4=O)sc23)c1O[C@H]1CCNC[C@@H]1F [Example 564, 3-[[4-[5-chloro-2-[[(3S,4S)-3-fluoro-4-piperidyl]oxy]-3-methyl-phenyl]thieno[3,2-d]pyrimidin-6-yl]methyl]-1-isopropyl-pyrimidine-2,4-dione] | < 1000
20 | Cc1cc(Cl)cc(-c2ccnc3cc(Cn4c(=O)ccn(C)c4=O)sc23)c1O[C@@H]1CNC[C@H](C)C1 [Example 524, 3-[[7-[5-chloro-3-methyl-2-[[(3S,5R)-5-methyl-3-piperidyl]oxy]phenyl]thieno[3,2-b]pyridin-2-yl]methyl]-1-methyl-pyrimidine-2,4-dione] | < 1000
21 | Cc1cc(Cl)cc(-c2ncnc3cc(Cn4c(=O)ccn(CC(F)(F)F)c4=O)sc23)c1OC1CC(N)C1 (centres unmarked) [Example 534, 3-[[4-[2-(3-aminocyclobutoxy)-5-chloro-3-methyl-phenyl]thieno[3,2-d]pyrimidin-6-yl]methyl]-1-(2,2,2-trifluoroethyl)pyrimidine-2,4-dione; 2,2,2-trifluoroacetic acid] | < 1000
22 | Cc1cc(Cl)cc(-c2ccnc3cc(Cn4c(=O)ccn(C)c4=O)sc23)c1O[C@@H]1CN(C(C)C)C[C@@H]1F [Example 469, 3-[[7-[5-chloro-2-[(3R,4S)-4-fluoro-1-isopropyl-pyrrolidin-3-yl]oxy-3-methyl-phenyl]thieno[3,2-b]pyridin-2-yl]methyl]-1-methyl-pyrimidine-2,4-dione] | < 1000

Next, values leading:

Row | IC50 [nM] | Structure (SMILES)
23 | < 1000 | CCN1CCCC(Oc2c(C)cc(Cl)cc2-c2ccnc3cc(Cn4c(=O)ccn(C)c4=O)sc23)C1 (centres unmarked) [Example 504, 3-[[7-[5-chloro-2-[(1-ethyl-3-piperidyl)oxy]-3-methyl-phenyl]thieno[3,2-b]pyridin-2-yl]methyl]-1-methyl-pyrimidine-2,4-dione]
24 | < 1000 | Cc1cc(Cl)cc(-c2ccnc3cc(Cn4c(=O)ccn(CC(F)(F)F)c4=O)sc23)c1OC1CC2CNC1C2 (centres unmarked) [Example 540, 3-[[7-[2-(3-azabicyclo[2.2.1]heptan-5-yloxy)-5-chloro-3-methyl-phenyl]thieno[3,2-b]pyridin-2-yl]methyl]-1-(2,2,2-trifluoroethyl)pyrimidine-2,4-dione]
25 | < 1000 | Cc1cc(Cl)cc(-c2ccnc3cc(CN4C(=O)CCC4=O)sc23)c1OC1CC2(CCN2)C1 (centres unmarked) [Example 439, 1-[[7-[2-(1-azaspiro[3.3]heptan-6-yloxy)-5-chloro-3-methyl-phenyl]thieno[3,2-b]pyridin-2-yl]methyl]pyrrolidine-2,5-dione; 2,2,2-trifluoroacetic acid]
26 | < 1000 | Cc1cc(Cl)cc(-c2ccnc3cc(Cn4c(=O)ccn(C)c4=O)sc23)c1O[C@@H]1CCN(C)C[C@@H]1C [Example 457, 3-[[7-[5-chloro-2-[[(3S,4R)-1,3-dimethyl-4-piperidyl]oxy]-3-methyl-phenyl]thieno[3,2-b]pyridin-2-yl]methyl]-1-methyl-pyrimidine-2,4-dione]
